Consider five molecules from patent publication US5780433A (priority 1996, dated 1998).

Experiment [1] has as its system nicotine-stimulated norepinephrine release, hippocampal synaptosomes. To be noted: cited from earlier work.
The subject of experiment [2] is norepinephrine release, hippocampal slice preparations. To be noted: cited from earlier work.
Experiment [3] deals with nicotine-stimulated [3H]-dopamine release from rat striatal synaptosomes. The conditions noted are these: read-out: EC50, increase of [3H]-dopamine release; cited from earlier work.
Experiment [4] shares this test system. Type of experiment: cell-based.
For experiment [5], the system named is potassium-stimulated dopamine release. Format: cell-based, rat.
Experiment [6] has as its system nicotine-stimulated norepinephrine release, hippocampal synaptosomes. Format: cell-based, rat.
Experiment [7] concerns the target α3β2 nAChRs expressed in Xenopus oocytes (Rattus norvegicus, UniProt P04757+P12390). To be noted: read-out: IC50, block of α3β2 nAChRs; cited from earlier work.
Experiment [8] concerns other nAChR subunit combinations (α7, α4β2, α2β2, α3β4, α1β1δγ, α4β4). The conditions noted are these: cited from earlier work.

Where “and” joins values, the source holds several entries; their conditions need not be identical. Equal entries are not always repeated. Entries after “also recorded” stand apart in the source; their conditions may differ.

α3β2 nAChRs expressed in Xenopus oocytes, sequence (P04757 26-499 limits assumed): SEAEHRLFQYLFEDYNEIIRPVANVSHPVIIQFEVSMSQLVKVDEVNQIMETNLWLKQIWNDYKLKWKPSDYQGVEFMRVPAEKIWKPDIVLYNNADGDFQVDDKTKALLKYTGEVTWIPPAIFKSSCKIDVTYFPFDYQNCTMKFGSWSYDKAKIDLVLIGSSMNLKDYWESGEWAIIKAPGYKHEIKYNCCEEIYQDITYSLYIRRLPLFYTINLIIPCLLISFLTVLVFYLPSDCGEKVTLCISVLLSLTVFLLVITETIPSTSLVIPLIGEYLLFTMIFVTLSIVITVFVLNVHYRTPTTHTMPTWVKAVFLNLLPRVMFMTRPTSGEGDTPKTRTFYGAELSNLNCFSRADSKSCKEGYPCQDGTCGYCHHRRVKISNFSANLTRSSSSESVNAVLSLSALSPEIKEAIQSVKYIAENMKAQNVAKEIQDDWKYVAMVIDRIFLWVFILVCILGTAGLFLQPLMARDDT
α3β2 nAChRs expressed in Xenopus oocytes, sequence (P12390 25-500 limits assumed): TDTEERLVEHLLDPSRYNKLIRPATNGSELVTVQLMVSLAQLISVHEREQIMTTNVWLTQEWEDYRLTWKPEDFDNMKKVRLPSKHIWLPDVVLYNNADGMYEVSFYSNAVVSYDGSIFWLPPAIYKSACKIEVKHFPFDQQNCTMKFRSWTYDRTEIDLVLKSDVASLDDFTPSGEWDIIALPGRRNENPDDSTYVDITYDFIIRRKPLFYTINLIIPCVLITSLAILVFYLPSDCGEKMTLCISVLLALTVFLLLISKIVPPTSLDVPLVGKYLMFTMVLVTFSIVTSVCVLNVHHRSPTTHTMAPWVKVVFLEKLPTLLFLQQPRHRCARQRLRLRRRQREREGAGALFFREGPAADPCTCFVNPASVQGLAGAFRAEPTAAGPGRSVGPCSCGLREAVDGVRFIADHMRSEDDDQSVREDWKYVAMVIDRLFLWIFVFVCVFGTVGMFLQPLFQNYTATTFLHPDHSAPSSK

Regarding `CN1CCCC1c1cccnc1.O=C(O)C(O)C(O)C(=O)O` (single isomer, unassigned; (-)) [nicotine, (-)Nicotine hydrogen tartrate], the EC50 (as a rule, the concentration giving half of the maximal effect) in experiment [1] is 6500 nM; in experiment [3] it was 160 nM. In addition, the “norepinephrine release over baseline” value in experiment [2] is on record as ~ 700%.

Take `CNC1(C)C2CCC(C2)C1(C)C` (centres unmarked) [mecamylamine, reference compound]: the “block of nicotine-stimulated dopamine release” value in experiment [4] is “fully blocked”.

Regarding `NC1=N[C@H](O)[C@H]2[C@H]3O[C@]4(O)O[C@@H]([C@@H](O)[C@@]2(N1)[C@@H]4O)[C@]3(O)CO` [tetrodotoxin], in experiment [1], the “effect on nicotine-stimulated synaptosomal release of norepinephrine” value is given as “not affected”. In experiment [2], the “block of nicotine-stimulated norepinephrine release from hippocampal slices” value was “majority”.

As to α-conotoxin ImI [reference compound], the “block of nicotine-stimulated dopamine release” value in experiment [4] is listed as “do not block; also recorded: no effect”.

α-conotoxin MII: in experiment [4], the “block of nicotine-evoked [3H]-dopamine release” value was “significantly blocked”; the “block of nicotine-stimulated [3H]-dopamine release” value was 33% and 34% and 44% and 50%; the “block of nicotine-stimulated [3H]-dopamine release (words)” value was “nonsignificant trend toward block”; the “block of nicotine-stimulated dopamine release” value is “blocks a fraction; also recorded: blocks a part but not all”. Also, the “effect on potassium-stimulated dopamine release” value in experiment [5] is recorded as “no effect”. For the same molecule, in experiment [6], the “block of nicotine-stimulated norepinephrine release” value is listed as “significant block” and the “block of nicotine-stimulated synaptosomal norepinephrine release” value was “do not block”. Further, in experiment [7], the IC50 – broadly, the midpoint of a concentration-inhibition curve – is 0.5 nM. Also, in experiment [8], the “affinities for other nAChR subunit combinations relative to α3β2” value is recorded as “two to four orders-of-magnitude higher”; the “discrimination between the α3/β2 and α3/β4 interface” value was “four orders-of-magnitude”.
